Measured values as given in patent US20210238225A1, “PEPTIDOMIMETIC INHIBITORS OF THE PEPTIDYL-PROLYL CIS/TRANS ISOMERASE (PIN1)” (DANA-FARBER CANCER INSTITUTE, INC., priority 2018, published 2021).
Non-standard residues stand in square brackets, D forms with d. Residues, ends and D or L forms follow the SMILES beside them. *: point of attachment. Ala(9-anthryl) = N[C@@H](Cc1c2ccccc2cc2ccccc12)C(=O)O; Phe(4-tBu) = CC(C)(C)c1ccc(C[C@H](N)C(=O)O)cc1; Bip = N[C@@H](Cc1ccc(-c2ccccc2)cc1)C(=O)O; Dip = N[C@H](C(=O)O)C(c1ccccc1)c1ccccc1; Morpholine(3S-CO) = O=C(O)[C@@H]1COCCN1; 2Nal = N[C@@H](Cc1ccc2ccccc2c1)C(=O)O; Bta = N[C@@H](Cc1csc2ccccc12)C(=O)O; NMeY = CN[C@@H](Cc1ccc(O)cc1)C(=O)O; NMeE = CN[C@@H](CCC(=O)O)C(=O)O; pS = N[C@@H](COP(=O)(O)O)C(=O)O; Cit = NC(=O)NCCC[C@H](N)C(=O)O; aThr = C[C@H](O)[C@H](N)C(=O)O; Pip = O=C(O)[C@@H]1CCCCN1; Acryloyl = C=CC(=O)*; ClAc = O=C(CCl)*

Molecular target: Pin1 (GST-Pin1) (Homo sapiens, UniProt Q13526)
Sequence (Q13526 whole entry): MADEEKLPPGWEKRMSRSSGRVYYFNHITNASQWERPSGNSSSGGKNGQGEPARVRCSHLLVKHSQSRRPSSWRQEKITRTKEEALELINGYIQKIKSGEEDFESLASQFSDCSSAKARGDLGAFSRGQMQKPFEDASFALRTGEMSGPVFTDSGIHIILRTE
Test: Fluorescence polarization (FP) assay, binding to Pin1
Details: competition with fluorescein-labeled peptide probe; 12 hours pre-incubation at 4° C.; Kenakin Ki equation; read-out: Ki, μM (FP Assay)

| SMILES | Ki [µM] |
| --- | --- |
| C=CC(=O)N[C@@H](CCC(=O)O)C(=O)N1CCCC[C@H]1C(=O)N[C@@H](Cc1ccc2ccccc2c1)C(=O)N[C@@H](CCC(N)=O)C(N)=O [Compound 2b-1, (S)-4-Acrylamido-5-((S)-2-(((S)-1-(((S)-1,5-diamino-1,5-dioxopentan-2-yl)amino)-3-(naphthalen-2-yl)-1-oxopropan-2-yl)carbamoyl)piperidin-1-yl)-5-oxopentanoic acid] (Acryloyl-E[Pip][2Nal]Q-NH2) | > 10 |
| C=CC(=O)N[C@H](CCC(=O)O)C(=O)N1CCCC[C@H]1C(=O)N[C@@H](Cc1ccc2ccccc2c1)C(=O)N[C@@H](CCC(N)=O)C(N)=O [Compound 2b-2, (R)-4-Acrylamido-5-((S)-2-(((S)-1-(((S)-1,5-diamino-1,5-dioxopentan-2-yl)amino)-3-(naphthalen-2-yl)-1-oxopropan-2-yl)carbamoyl)piperidin-1-yl)-5-oxopentanoic acid] (Acryloyl-[dE][Pip][2Nal]Q-NH2) | > 10 |
| NC(=O)CC[C@H](NC(=O)[C@H](Cc1ccc2ccccc2c1)NC(=O)[C@@H]1CCCCN1C(=O)[C@@H](CCC(=O)O)NC(=O)CCl)C(N)=O [Compound 2b-4, (R)-4-(2-Chloroacetamido)-5-((S)-2-(((S)-1-(((S)-1,5-diamino-1,5-dioxopentan-2-yl)amino)-3-(naphthalen-2-yl)-1-oxopropan-2-yl)carbamoyl)piperidin-1-yl)-5-oxopentanoic acid] (ClAc-[dE][Pip][2Nal]Q-NH2) | > 10 |
| NC(=O)CC[C@H](NC(=O)[C@H](Cc1ccc2ccccc2c1)NC(=O)[C@@H]1COCCN1C(=O)[C@H](CCC(=O)O)NC(=O)CCl)C(N)=O [Compound 2b-5, (S)-4-(2-Chloroacetamido)-5-((S)-3-(((S)-1-(((S)-1,5-diamino-1,5-dioxopentan-2-yl)amino)-3-(naphthalen-2-yl)-1-oxopropan-2-yl)carbamoyl)morpholino)-5-oxopentanoic acid] (ClAc-E[Morpholine(3S-CO)][2Nal]Q-NH2) | > 10 |
| NC(=O)[C@H](Cc1c[nH]cn1)NC(=O)[C@H](Cc1ccc2ccccc2c1)NC(=O)[C@@H]1CCCCN1C(=O)[C@H](CCC(=O)O)NC(=O)CCl [Compound 2b-7, (S)-5-((S)-2-(((S)-1-(((S)-1-Amino-3-(1H-imidazol-4-yl)-1-oxopropan-2-yl)amino)-3-(naphthalen-2-yl)-1-oxopropan-2-yl)carbamoyl)piperidin-1-yl)-4-(2-chloroacetamido)-5-oxopentanoic acid] (ClAc-E[Pip][2Nal]H-NH2) | 4.02 |
| NC(=O)CC[C@H](NC(=O)[C@H](Cc1csc2ccccc12)NC(=O)[C@@H]1CCCCN1C(=O)[C@H](CCC(=O)O)NC(=O)CCl)C(N)=O [Compound 2b-8, (S)-5-((S)-2-(((S)-3-(Benzo[6]thiophen-3-yl)-1-(((S)-1,5-diamino-1,5-dioxopentan-2-yl)amino)-1-oxopropan-2-yl)carbamoyl)piperidin-1-yl)-4-(2-chloroacetamido)-5-oxopentanoic acid] (ClAc-E[Pip][Bta]Q-NH2) | 2.83 |
| N=C(N)NCCC[C@H](NC(=O)[C@H](Cc1ccc(-c2ccccc2)cc1)NC(=O)[C@@H]1CCCCN1C(=O)[C@H](CCC(=O)O)NC(=O)CCl)C(N)=O [Compound 2b-9, (S)-5-((S)-2-(((S)-3-([1,1′-Biphenyl]-4-yl)-1-(((S)-1-amino-5-guanidino-1-oxopentan-2-yl)amino)-1-oxopropan-2-yl)carbamoyl)piperidin-1-yl)-4-(2-chloroacetamido)-5-oxopentanoic acid] (ClAc-E[Pip][Bip]R-NH2) | 0.19 |
| N=C(N)NCCC[C@H](NC(=O)[C@@H](NC(=O)[C@@H]1CCCCN1C(=O)[C@H](CCC(=O)O)NC(=O)CCl)C(c1ccccc1)c1ccccc1)C(N)=O [Compound 2b-10, (S)-5-((S)-2-(((S)-1-(((S)-1-Amino-5-guanidino-1-oxopentan-2-yl)amino)-1-oxo-3,3-diphenylpropan-2-yl)carbamoyl)piperidin-1-yl)-4-(2-chloroacetamido)-5-oxopentanoic acid] (ClAc-E[Pip][Dip]R-NH2) | 0.85 |
| N=C(N)NCCC[C@H](NC(=O)[C@H](Cc1c2ccccc2cc2ccccc12)NC(=O)[C@@H]1CCCCN1C(=O)[C@H](CCC(=O)O)NC(=O)CCl)C(N)=O [Compound 2b-11, (S)-5-((S)-2-(((S)-1-(((S)-1-Amino-5-guanidino-1-oxopentan-2-yl)amino)-3-(anthracen-9-yl)-1-oxopropan-2-yl)carbamoyl)piperidin-1-yl)-4-(2-chloroacetamido)-5-oxopentanoic acid] (ClAc-E[Pip][Ala(9-anthryl)]R-NH2) | 0.609 |
| NC(=O)[C@H](CO)NC(=O)[C@H](Cc1ccc2ccccc2c1)NC(=O)[C@@H]1CCCCN1C(=O)[C@H](CCC(=O)O)NC(=O)CCl [Compound 2b-12, (S)-5-((S)-2-(((S)-1-(((S)-1-Amino-3-hydroxy-1-oxopropan-2-yl)amino)-3-(naphthalen-2-yl)-1-oxopropan-2-yl)carbamoyl)piperidin-1-yl)-4-(2-chloroacetamido)-5-oxopentanoic acid] (ClAc-E[Pip][2Nal]S-NH2) | 0.23 |
| CC(C)(C)c1ccc(C[C@H](NC(=O)[C@@H]2CCCCN2C(=O)[C@H](CCC(=O)O)NC(=O)CCl)C(=O)N[C@@H](CCCNC(=N)N)C(N)=O)cc1 [Compound 2b-14, (S)-5-((S)-2-(((S)-1-(((S)-1-Amino-5-guanidino-1-oxopentan-2-yl)amino)-3-(4-(tert-butyl)phenyl)-1-oxopropan-2-yl)carbamoyl)piperidin-1-yl)-4-(2-chloroacetamido)-5-oxopentanoic acid] (ClAc-E[Pip][Phe(4-tBu)]R-NH2) | 0.19 |

Further lines, results first:

| Ki [µM] | SMILES |
| --- | --- |
| 0.004 | NC(=O)NCCC[C@H](NC(=O)[C@H](Cc1c[nH]c2ccccc12)NC(=O)[C@@H]1CCCCN1C(=O)[C@H](COP(=O)(O)O)NC(=O)CCl)C(N)=O [Compound 2-21, (S)-3-((S)-2-(((S)-1-(((S)-1-Amino-1-oxo-5-ureidopentan-2-yl)amino)-3-(1H-indol-3-yl)-1-oxopropan-2-yl)carbamoyl)piperidin-1-yl)-2-(2-chloroacetamido)-3-oxopropyl dihydrogen phosphate] (ClAc-[pS][Pip]W[Cit]-NH2) |
| 0.231 | COC(=O)CC[C@H](NC(=O)CCl)C(=O)N1CCCC[C@H]1C(=O)N[C@@H](Cc1c[nH]c2ccccc12)C(=O)N[C@@H](Cc1ccccc1)C(N)=O [Compound 2-23, Methyl (S)-5-((S)-2-(((S)-1-(((S)-1-Amino-1-oxo-3-phenylpropan-2-yl)amino)-3-(1H-indol-3-yl)-1-oxopropan-2-yl)carbamoyl)piperidin-1-yl)-4-(2-chloroacetamido)-5-oxopentanoate] (ClAc-E(OMe)[Pip]WF-NH2) |
| 0.525 | COC(=O)CC[C@H](NC(=O)CCl)C(=O)N1CCCC[C@H]1C(=O)N[C@@H](Cc1c[nH]c2ccccc12)C(=O)N[C@@H](Cc1ccc2ccccc2c1)C(N)=O [Compound 2-24, Methyl (S)-5-((S)-2-(((S)-1-(((S)-1-Amino-3-(naphthalen-2-yl)-1-oxopropan-2-yl)amino)-3-(1H-indol-3-yl)-1-oxopropan-2-yl)carbamoyl)piperidin-1-yl)-4-(2-chloroacetamido)-5-oxopentanoate] (ClAc-E(OMe)[Pip]W[2Nal]-NH2) |
| 0.299 | C[C@H](O)[C@H](NC(=O)CCl)C(=O)N1CCCC[C@H]1C(=O)N[C@@H](Cc1c[nH]c2ccccc12)C(=O)N[C@@H](Cc1ccc(O)cc1)C(N)=O [Compound 2-26, (S)—N—((S)-1-(((S)-1-Amino-3-(4-hydroxyphenyl)-1-oxopropan-2-yl)amino)-3-(1H-indol-3-yl)-1-oxopropan-2-yl)-1-((2-chloroacetyl)-L-allothreonyl)piperidine-2-carboxamide] (ClAc-[aThr][Pip]WY-NH2) |
| > 10 | COC(=O)CC[C@H](NC(=O)CCl)C(=O)N1CCCC[C@H]1C(=O)N[C@@H](Cc1c[nH]c2ccccc12)C(=O)N(C)[C@@H](Cc1ccc(O)cc1)C(N)=O [Compound 2-28, Methyl (S)-5-((S)-2-(((S)-1-(((S)-1-amino-3-(4-hydroxyphenyl)-1-oxopropan-2-yl)(methyl)-amino)-3-(1H-indol-3-yl)-1-oxopropan-2-yl)carbamoyl)piperidin-1-yl)-4-(2-chloroacetamido)-5-oxopentanoate] (ClAc-E(OMe)[Pip]W[NMeY]-NH2) |
| 0.07 | CN(C(=O)CCl)[C@@H](CCC(=O)O)C(=O)N1CCCC[C@H]1C(=O)N[C@@H](Cc1c[nH]c2ccccc12)C(=O)N[C@@H](Cc1ccc(O)cc1)C(N)=O [Compound 2-31, (S)-5-((S)-2-(((S)-1-(((S)-1-Amino-3-(4-hydroxyphenyl)-1-oxopropan-2-yl)amino)-3-(1H-indol-3-yl)-1-oxopropan-2-yl)carbamoyl)piperidin-1-yl)-4-(2-chloro-N-methylacetamido)-5-oxopentanoic acid] (ClAc-[NMeE][Pip]WY-NH2) |
| > 10 | CC(=O)N[C@@H](CCC(=O)O)C(=O)N1CCCC[C@H]1C(=O)N[C@@H](Cc1c[nH]c2ccccc12)C(=O)N[C@@H](CCCNC(N)=O)C(N)=O [Compound 2-33, (S)-4-Acetamido-5-((S)-2-(((S)-1-(((S)-1-amino-1-oxo-5-ureidopentan-2-yl)amino)-3-(1H-indol-3-yl)-1-oxopropan-2-yl)carbamoyl)piperidin-1-yl)-5-oxopentanoic acid] (Ac-E[Pip]W[Cit]-NH2) |
| > 10 | C=CC(=O)N[C@H](CC(=O)O)C(=O)N1CCCC[C@H]1C(=O)N[C@@H](Cc1ccc2ccccc2c1)C(=O)N[C@@H](CCC(N)=O)C(N)=O [Compound 2-34, (R)-3-Acrylamido-4-((S)-2-(((S)-1-(((S)-1,5-diamino-1,5-dioxopentan-2-yl)amino)-3-(naphthalen-2-yl)-1-oxopropan-2-yl)carbamoyl)piperidin-1-yl)-4-oxobutanoic acid] (Acryloyl-[dD][Pip][2Nal]Q-NH2) |
| > 10 | C=CC(=O)N[C@@H](CC(=O)O)C(=O)N1CCCC[C@H]1C(=O)N[C@@H](Cc1ccc2ccccc2c1)C(=O)N[C@@H](CCC(N)=O)C(N)=O [Compound 2-35, (S)-3-Acrylamido-4-((S)-2-(((S)-1-(((S)-1,5-diamino-1,5-dioxopentan-2-yl)amino)-3-(naphthalen-2-yl)-1-oxopropan-2-yl)carbamoyl)piperidin-1-yl)-4-oxobutanoic acid] (Acryloyl-D[Pip][2Nal]Q-NH2) |
